In ChEMBL document CHEMBL4507327 (2021):
Values belong to the compound of their own block, whether it stands above or below them.

How the values were obtained:
[1] = target: Alpha-1D adrenergic receptor (Homo sapiens) (UniProt P25100); conditions: Compound concentration 10.0 uM
[2] = target: Alpha-2A adrenergic receptor (Homo sapiens) (UniProt P08913); conditions: Compound concentration 10.0 uM
[3] = target: Endothelin-1 receptor (Homo sapiens) (UniProt P25101); conditions: Compound concentration 10.0 uM
[4] = target: Acetylcholine receptor subunit alpha (Homo sapiens) (UniProt P02708); experiment: Inhibition of Nicotinic Acetylcholine D1, Bungarotoxin at 10 µM in the Eurofins-Panlabs radioligand binding assay (Eurofins_assay_258700); conditions: Compound concentration 10.0 uM
[5] = target: Prostaglandin E2 receptor EP4 subtype (Homo sapiens) (UniProt P35408); experiment: Inhibition of Prostanoid EP4 at 10 µM in the Eurofins-Panlabs radioligand binding assay (Eurofins_assay_268420); design: ligand concentration 1 nM; conditions: Compound concentration 10.0 uM
[6] = target: Alpha-2A adrenergic receptor (Homo sapiens) (UniProt P08913); conditions: Compound concentration 10.0 uM; remark: listed apart in the source
[7] = target: Beta-1 adrenergic receptor (Homo sapiens) (UniProt P08588); conditions: Compound concentration 10.0 uM
[8] = target: T1, 5-hydroxytryptamine receptor 1A (Homo sapiens) (UniProt P08908); conditions: Compound concentration 10.0 uM
T1 sequence (whole entry): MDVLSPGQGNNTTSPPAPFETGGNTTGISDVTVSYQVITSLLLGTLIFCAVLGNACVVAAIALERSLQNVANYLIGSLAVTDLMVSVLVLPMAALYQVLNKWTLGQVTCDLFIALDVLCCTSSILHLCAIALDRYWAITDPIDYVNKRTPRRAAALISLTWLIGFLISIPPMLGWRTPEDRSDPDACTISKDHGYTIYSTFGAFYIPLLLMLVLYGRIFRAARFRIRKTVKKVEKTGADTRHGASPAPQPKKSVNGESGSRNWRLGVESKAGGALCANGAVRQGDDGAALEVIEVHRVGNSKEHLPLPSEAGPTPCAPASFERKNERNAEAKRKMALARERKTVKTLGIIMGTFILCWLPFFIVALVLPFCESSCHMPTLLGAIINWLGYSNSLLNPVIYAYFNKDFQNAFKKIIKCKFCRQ

[9] = target: Beta-2 adrenergic receptor (Homo sapiens) (UniProt P07550); conditions: Compound concentration 10.0 uM
Rattus norvegicus = species: Rattus norvegicus; conditions: Compound concentration 10.0 uM
[10] = target: Sigma non-opioid intracellular receptor 1 (Homo sapiens) (UniProt Q99720); conditions: Compound concentration 10.0 uM
[11] = target: Serine/threonine-protein kinase Nek8 (Homo sapiens, UniProt Q86SG6); experiment: Nek8(NEK8LGRI) Takeda global kinase panel
[12] = target: STE20/SPS1-related proline-alanine-rich protein kinase (Homo sapiens, UniProt Q9UEW8); experiment: STLK3(ST39LGRJ) Takeda global kinase panel
[13] = GPCRScan assay: inhibition of GABA/PBR; design: species or system Rattus norvegicus; radioligand conc. used [nm] 0.3 – 2.0, parental cells brain tissue
[14] = target: Muscarinic acetylcholine receptor M5 (Homo sapiens) (UniProt P08912); conditions: Compound concentration 10.0 uM
[15] = target: Beta-1 adrenergic receptor (Homo sapiens) (UniProt P08588); conditions: Compound concentration 10.0 uM; remark: listed apart in the source
[16] = target: Serine/threonine-protein kinase N2 (Homo sapiens, UniProt Q16513); experiment: PKN2 [PRK2(PKN2LGG5)] Takeda global kinase panel
[17] = target: 5-hydroxytryptamine receptor 7 (Homo sapiens) (UniProt P34969); conditions: Compound concentration 10.0 uM
[18] = target: Beta-3 adrenergic receptor (Homo sapiens) (UniProt P13945); conditions: Compound concentration 10.0 uM
[19] = target: Receptor-interacting serine/threonine-protein kinase 4 (Homo sapiens, UniProt P57078); experiment: ANKRD3(RIP4LGN1) Takeda global kinase panel
[20] = target: voltage-gated sodium channel, site 2 (Rattus norvegicus, UniProt F1LQQ7+O08562+O88420+O88457+P04774+P04775+P08104+P15389+P15390+Q62968); experiment: Inhibition of Sodium Channel, Site 2 at 10 µM in the Eurofins-Panlabs radioligand binding assay (Eurofins_assay_279510); format: protein assay; design: ligand concentration 5 nM, non-specific ligand with concentration 100 µM Veratridine, incubation time 60 min, incubation temperature 37 °C; conditions: male, Wistar, whole brain (except cerebellum) membranes of rats, probe [3H] Batrachotoxinin, compound concentration 10 uM
[21] = target: MAP kinase-activated protein kinase 5 (Homo sapiens, UniProt Q8IW41); experiment: MAPKAPK5(MPK5LGN1) Takeda global kinase panel
[22] = target: Serine/threonine-protein kinase TAO1 (Homo sapiens, UniProt Q7L7X3); experiment: TAO1(TAO1LGF1) Takeda global kinase panel
[23] = target: Fibroblast growth factor receptor 1 (Homo sapiens, UniProt P11362); experiment: FGFR1(FGF1LGF1) Takeda global kinase panel
[24] = target: 5'-AMP-activated protein kinase catalytic subunit alpha-2 (Homo sapiens, UniProt P54646); experiment: AMPKalpha2(PRA2LGY1) Takeda global kinase panel
[25] = target: 5'-AMP-activated protein kinase catalytic subunit alpha-1 (Homo sapiens, UniProt Q13131); experiment: AMPKalpha1(PRA1PGF1) Takeda global kinase panel
[26] = target: cAMP-dependent protein kinase catalytic subunit beta (Homo sapiens, UniProt P22694); experiment: PKAbeta(PRCBLGF1) Takeda global kinase panel
[27] = target: Macrophage-stimulating protein receptor (Homo sapiens, UniProt Q04912); experiment: Ron(MST1MGY1) Takeda global kinase panel
[28] = target: Cyclin-dependent kinase-like 1 (Homo sapiens, UniProt Q00532); experiment: CDKL1(CDL1LGT1) Takeda global kinase panel
Activin receptor type-1B = Activin receptor type-1B (Homo sapiens, UniProt P36896); experiment: ALK4(AC1BLGF1) Takeda global kinase panel
[29] = target: Protein kinase C gamma type (Homo sapiens, UniProt P05129); experiment: PKCgamma(PRKGLGP1) Takeda global kinase panel
[30] = target: Calcium/calmodulin-dependent protein kinase type II subunit delta (Homo sapiens, UniProt Q13557); experiment: CaMK2delta(CA2DCGT1) Takeda global kinase panel
Angiopoietin-1 receptor = Angiopoietin-1 receptor (Homo sapiens, UniProt Q02763); experiment: TIE2(TEK1LGF1) Takeda global kinase panel
[31] = target: Proto-oncogene tyrosine-protein kinase receptor Ret (Homo sapiens, UniProt P07949); experiment: Ret(RET1LGF1) Takeda global kinase panel
[32] = target: Ribosomal protein S6 kinase alpha-3 (Homo sapiens, UniProt P51812); experiment: RSK2(R6A3CGE1) Takeda global kinase panel
[33] = target: Inhibitor of nuclear factor kappa-B kinase subunit alpha (Homo sapiens, UniProt O15111); experiment: IKKalpha(CHUKLGP1) Takeda global kinase panel
[34] = target: cAMP-dependent protein kinase catalytic subunit alpha (Homo sapiens, UniProt P17612); experiment: PKAalpha(PRCALGH1) Takeda global kinase panel
[35] = target: Calcium/calmodulin-dependent protein kinase type II subunit alpha (Homo sapiens, UniProt Q9UQM7); experiment: CaMK2alpha(CA2ACGT1) Takeda global kinase panel

Sequence of Alpha-2A adrenergic receptor (Homo sapiens) (P08913 whole entry): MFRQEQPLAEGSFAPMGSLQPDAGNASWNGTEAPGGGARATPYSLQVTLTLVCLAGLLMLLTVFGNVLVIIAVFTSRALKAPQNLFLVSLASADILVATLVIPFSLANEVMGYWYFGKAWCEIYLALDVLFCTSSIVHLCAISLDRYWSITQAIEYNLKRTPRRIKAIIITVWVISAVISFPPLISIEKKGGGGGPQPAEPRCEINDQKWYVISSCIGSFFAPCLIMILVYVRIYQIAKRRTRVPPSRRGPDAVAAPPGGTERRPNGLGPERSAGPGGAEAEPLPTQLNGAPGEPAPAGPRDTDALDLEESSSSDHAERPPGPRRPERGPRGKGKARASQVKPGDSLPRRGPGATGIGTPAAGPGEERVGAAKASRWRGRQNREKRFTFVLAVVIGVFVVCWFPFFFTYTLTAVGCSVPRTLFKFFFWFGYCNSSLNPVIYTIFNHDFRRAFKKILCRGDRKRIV
Sequence of Beta-1 adrenergic receptor (Homo sapiens) (P08588 whole entry, looked up): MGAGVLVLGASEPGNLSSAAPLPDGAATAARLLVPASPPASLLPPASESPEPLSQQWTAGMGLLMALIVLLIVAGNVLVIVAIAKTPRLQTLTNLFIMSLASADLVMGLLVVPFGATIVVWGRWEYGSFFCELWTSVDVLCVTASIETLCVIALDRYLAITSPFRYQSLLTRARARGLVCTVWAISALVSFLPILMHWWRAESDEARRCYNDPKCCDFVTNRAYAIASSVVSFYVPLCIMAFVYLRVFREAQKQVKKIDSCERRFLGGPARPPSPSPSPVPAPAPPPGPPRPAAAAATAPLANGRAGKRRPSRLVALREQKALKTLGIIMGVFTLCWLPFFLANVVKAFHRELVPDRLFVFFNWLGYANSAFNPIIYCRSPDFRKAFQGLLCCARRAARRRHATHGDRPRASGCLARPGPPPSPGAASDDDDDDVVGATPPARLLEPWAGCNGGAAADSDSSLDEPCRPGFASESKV
Sequence of Beta-2 adrenergic receptor (Homo sapiens) (P07550 whole entry, looked up): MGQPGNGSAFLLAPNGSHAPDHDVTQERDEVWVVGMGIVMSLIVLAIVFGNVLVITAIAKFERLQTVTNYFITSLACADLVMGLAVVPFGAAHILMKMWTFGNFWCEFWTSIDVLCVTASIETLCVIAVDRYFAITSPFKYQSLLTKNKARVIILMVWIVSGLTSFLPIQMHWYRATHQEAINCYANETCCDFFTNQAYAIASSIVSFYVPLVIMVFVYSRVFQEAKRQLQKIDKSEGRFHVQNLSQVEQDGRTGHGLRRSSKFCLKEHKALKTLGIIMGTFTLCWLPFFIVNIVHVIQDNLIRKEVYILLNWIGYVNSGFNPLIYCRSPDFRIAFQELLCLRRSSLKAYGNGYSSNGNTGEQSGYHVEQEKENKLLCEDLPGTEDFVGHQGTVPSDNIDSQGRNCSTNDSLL
Sequence of Serine/threonine-protein kinase N2 (Q16513 whole entry): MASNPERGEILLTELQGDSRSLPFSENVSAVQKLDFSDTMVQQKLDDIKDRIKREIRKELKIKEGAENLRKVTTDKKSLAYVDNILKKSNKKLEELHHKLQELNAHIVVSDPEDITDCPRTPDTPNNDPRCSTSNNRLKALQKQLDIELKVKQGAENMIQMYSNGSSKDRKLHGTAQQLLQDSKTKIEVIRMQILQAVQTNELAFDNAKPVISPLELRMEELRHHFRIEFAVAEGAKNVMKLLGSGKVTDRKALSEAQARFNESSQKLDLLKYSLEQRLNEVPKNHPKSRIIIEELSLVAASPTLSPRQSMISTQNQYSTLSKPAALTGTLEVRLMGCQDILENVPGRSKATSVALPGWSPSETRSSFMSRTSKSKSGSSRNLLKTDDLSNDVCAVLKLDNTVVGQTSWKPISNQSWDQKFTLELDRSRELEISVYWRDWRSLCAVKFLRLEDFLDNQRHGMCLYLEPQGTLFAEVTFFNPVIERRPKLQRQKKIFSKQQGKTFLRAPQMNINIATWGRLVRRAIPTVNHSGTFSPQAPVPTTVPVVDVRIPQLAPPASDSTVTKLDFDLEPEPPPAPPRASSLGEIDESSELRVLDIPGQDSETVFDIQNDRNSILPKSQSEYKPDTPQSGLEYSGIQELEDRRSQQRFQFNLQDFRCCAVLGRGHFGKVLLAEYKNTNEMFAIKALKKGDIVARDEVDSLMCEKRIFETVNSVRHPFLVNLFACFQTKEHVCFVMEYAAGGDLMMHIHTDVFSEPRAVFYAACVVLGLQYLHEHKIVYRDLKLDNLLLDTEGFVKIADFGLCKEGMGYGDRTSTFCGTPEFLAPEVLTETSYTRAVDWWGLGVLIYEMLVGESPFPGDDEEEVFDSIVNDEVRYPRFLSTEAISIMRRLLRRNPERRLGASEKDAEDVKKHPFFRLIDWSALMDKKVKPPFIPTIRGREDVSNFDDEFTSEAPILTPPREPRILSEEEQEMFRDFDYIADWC
Sequence of Calcium/calmodulin-dependent protein kinase type II subunit delta (Q13557 whole entry): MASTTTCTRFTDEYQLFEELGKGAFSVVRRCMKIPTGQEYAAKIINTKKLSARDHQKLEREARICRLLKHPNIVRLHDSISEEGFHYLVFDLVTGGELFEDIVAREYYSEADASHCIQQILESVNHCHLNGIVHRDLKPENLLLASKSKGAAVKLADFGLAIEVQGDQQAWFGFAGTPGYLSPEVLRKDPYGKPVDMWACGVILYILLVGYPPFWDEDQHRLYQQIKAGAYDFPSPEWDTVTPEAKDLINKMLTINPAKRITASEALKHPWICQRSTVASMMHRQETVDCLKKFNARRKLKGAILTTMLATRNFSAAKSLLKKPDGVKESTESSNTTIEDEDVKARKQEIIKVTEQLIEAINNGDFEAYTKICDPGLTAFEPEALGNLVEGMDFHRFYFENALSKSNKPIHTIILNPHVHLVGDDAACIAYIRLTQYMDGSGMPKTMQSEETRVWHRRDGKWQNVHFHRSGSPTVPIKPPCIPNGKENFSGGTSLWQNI
Sequence of Ribosomal protein S6 kinase alpha-3 (P51812 whole entry): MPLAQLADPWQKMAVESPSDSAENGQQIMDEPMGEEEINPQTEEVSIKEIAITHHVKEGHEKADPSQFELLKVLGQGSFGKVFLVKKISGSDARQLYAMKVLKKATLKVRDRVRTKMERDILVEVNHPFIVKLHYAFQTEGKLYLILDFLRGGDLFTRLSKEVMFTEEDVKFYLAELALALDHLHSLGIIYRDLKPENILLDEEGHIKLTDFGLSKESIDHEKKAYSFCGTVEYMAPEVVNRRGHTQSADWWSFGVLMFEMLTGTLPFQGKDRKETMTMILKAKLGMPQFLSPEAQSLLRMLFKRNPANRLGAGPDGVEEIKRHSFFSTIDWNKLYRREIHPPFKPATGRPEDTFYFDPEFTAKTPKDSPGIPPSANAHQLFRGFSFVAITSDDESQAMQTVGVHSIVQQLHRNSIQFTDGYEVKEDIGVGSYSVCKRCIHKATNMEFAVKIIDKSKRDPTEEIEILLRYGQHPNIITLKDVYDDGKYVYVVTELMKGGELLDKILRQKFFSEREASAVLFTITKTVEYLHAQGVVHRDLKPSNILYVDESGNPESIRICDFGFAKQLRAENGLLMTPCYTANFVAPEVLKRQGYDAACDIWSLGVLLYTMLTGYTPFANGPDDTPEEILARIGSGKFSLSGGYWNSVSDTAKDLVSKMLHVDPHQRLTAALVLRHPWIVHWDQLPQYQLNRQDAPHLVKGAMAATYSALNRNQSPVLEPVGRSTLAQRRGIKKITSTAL
Sequence of Proto-oncogene tyrosine-protein kinase receptor Ret (P07949 whole entry): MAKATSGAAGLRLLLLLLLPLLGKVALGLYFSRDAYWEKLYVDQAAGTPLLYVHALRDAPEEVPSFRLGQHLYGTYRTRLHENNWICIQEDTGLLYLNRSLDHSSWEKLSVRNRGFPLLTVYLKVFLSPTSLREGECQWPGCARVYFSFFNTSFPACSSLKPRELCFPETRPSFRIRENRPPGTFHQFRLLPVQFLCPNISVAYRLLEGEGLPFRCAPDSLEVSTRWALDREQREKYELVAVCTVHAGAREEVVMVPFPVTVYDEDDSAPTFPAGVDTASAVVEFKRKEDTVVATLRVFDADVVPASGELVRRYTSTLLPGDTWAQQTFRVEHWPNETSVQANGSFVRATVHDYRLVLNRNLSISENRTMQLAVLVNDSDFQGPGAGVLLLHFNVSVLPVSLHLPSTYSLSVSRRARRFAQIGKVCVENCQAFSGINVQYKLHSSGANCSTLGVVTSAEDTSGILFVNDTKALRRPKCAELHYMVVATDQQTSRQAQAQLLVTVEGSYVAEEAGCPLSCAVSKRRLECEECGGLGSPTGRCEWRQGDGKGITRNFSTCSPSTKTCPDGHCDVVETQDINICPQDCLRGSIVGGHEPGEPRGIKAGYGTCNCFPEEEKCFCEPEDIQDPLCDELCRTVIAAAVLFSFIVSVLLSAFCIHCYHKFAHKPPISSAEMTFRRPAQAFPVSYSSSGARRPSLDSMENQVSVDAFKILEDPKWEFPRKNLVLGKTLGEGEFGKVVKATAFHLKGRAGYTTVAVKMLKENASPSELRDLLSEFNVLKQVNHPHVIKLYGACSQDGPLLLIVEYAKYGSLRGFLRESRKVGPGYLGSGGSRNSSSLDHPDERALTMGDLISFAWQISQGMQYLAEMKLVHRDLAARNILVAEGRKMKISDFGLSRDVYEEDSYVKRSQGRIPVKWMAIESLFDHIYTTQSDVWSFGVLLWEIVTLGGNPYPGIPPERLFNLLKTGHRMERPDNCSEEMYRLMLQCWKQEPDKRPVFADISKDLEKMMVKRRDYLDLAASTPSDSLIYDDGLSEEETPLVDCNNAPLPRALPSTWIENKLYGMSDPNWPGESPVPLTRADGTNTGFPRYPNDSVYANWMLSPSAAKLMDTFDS
Sequence of Cyclin-dependent kinase-like 1 (Q00532 whole entry): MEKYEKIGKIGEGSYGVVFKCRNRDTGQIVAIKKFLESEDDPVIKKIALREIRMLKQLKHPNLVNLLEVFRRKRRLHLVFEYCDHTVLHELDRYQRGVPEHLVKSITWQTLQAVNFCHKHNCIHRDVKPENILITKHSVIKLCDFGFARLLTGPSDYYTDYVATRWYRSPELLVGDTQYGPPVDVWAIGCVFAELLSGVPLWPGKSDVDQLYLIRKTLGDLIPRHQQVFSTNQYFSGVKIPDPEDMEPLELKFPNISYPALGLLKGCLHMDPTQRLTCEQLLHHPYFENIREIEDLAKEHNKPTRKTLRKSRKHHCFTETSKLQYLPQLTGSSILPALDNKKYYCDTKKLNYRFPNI

Structure (SMILES): CN1C(=O)[C@@H](N2CCc3cn(Cc4ccccc4)nc3C2=O)COc2ccccc21 [TP-030-1]
- inhibition [1]: -0.3%
- inhibition [2]: 7%
- inhibition [3]: -5%
- inhibition [4]: -8%
- inhibition [5]: 12%
- inhibition [6]: 19.1%
- inhibition [7]: 5.21%
- inhibition [8]: 5.07%
- inhibition [9]: 9.59%
- inhibition (Rattus norvegicus): -7%
- inhibition [10]: -1.9%
- IC50 [11]: 1000 nM
- IC50 [12]: 1000 nM
- Ki [13]: 375 nM
- pKi [13]: 6.425
- inhibition [14]: 6.63%
- inhibition [15]: -8%
- IC50 [16]: 1000 nM
- inhibition [17]: -1.17%
- inhibition [18]: 9.8%

- IC50 [19]: 1000 nM
- IC50 [21]: 1000 nM
- IC50 [22]: 1000 nM
- IC50 [23]: 1000 nM
- IC50 [24]: 1000 nM
- IC50 [25]: 1000 nM
- IC50 [26]: 1000 nM
- IC50 [27]: 1000 nM
- IC50 [28]: 1000 nM
- IC50 (Activin receptor type-1B): 1000 nM
- IC50 [29]: 1000 nM
- IC50 [30]: 1000 nM
- IC50 (Angiopoietin-1 receptor): 1000 nM
- IC50 [31]: 1000 nM
- IC50 [32]: 1000 nM
- IC50 [33]: 1000 nM
- IC50 [34]: 1000 nM
- IC50 [35]: 1000 nM
Structure (SMILES): CN1C(=O)[C@@H](N2CCc3cn(CC4CCS(=O)(=O)CC4)nc3C2=O)COc2ccccc21 [TP-030n]
- inhibition at 60 min, 10 µM [20]: 9% (not active)
